# Experimental data: ChEMBL document CHEMBL2396587, “Synthesis, in vitro, and in cell studies of a new series of [indoline-3,2'-thiazolidine]-based p53 modulators” (J Med Chem, 2013)
# Calls of active or inactive are those of the source. The rule behind the calls is not given here.
# What was measured:
# HT-29 = test: Cytotoxicity against human HT-29 cells after 24 hrs by MTT assay; type: functional, cell-based; conditions: HT-29, 24 h
# MCF7 [1] = test: cells; conditions: Homo sapiens, MCF7, 24 h
# Description: Cytotoxicity against human MCF7 cells after 24 hrs by MTT assay
# MCF7 [2] = test: Cell cycle arrest in human MCF7 cells assessed as accumulation at S phase at 50 nM after 24 to 72 hrs by propidium iodide staining-based FACS analysis relative to control; type: functional
# MCF7 [3] = test: Induction of apoptosis in human MCF7 cells assessed as increase in p21 expression level at 50 nM by Western blotting analysis; type: functional, cell-based; conditions: TDE = time-dependent effect
# MCF7 [4] = test: Induction of apoptosis in human MCF7 cells assessed as increase in p27 expression level at 50 nM by Western blotting analysis; type: functional, cell-based; conditions: TDE = time-dependent effect
# PC-3 = test: cells; conditions: Homo sapiens, PC-3, 24 h
# Description: Cytotoxicity against human PC3 cells after 24 hrs by MTT assay
# MCF7 [5] = test: Induction of apoptosis in human MCF7 cells assessed as accumulation of caspase-3 cleavage product at 50 nM after 24 to 72 hrs by Western blotting analysis
# [6] = target: T1, Tumour suppressor p53/oncoprotein Mdm2 (Homo sapiens) (UniProt P04637+Q00987); test: Inhibition of MDM2-p53 interaction in human MCF7 cells assessed as MDM2 accumulation at 50 nM after 24 to 72 hrs by Western blot analysis; type: cell-based
# [7] = target: T1, Tumour suppressor p53/oncoprotein Mdm2 (Homo sapiens); test: Inhibition of MDM2-p53 interaction in human MCF7 cells after 72 hrs by immunoprecipitation assay; type: cell-based
# MCF7 [8] = test: Induction of apoptosis in human MCF7 cells assessed as increase in Bcl-xS expression level at 50 nM after 24 to 72 hrs by Western blotting analysis; type: functional, cell-based
# MCF7 [9] = test: Cell cycle arrest in human MCF7 cells assessed as accumulation at G1 phase at 50 nM after 24 to 72 hrs by propidium iodide staining-based FACS analysis relative to control; type: functional
# MCF7 [10] = test: Induction of apoptosis in human MCF7 cells assessed as accumulation at subG1 phase at 50 nM by propidium iodide staining-based FACS analysis; type: functional, cell-based; conditions: TDE = time-dependent effect
# [11] = target: T1, Tumour suppressor p53/oncoprotein Mdm2 (Homo sapiens); test: Inhibition of MDM2-p53 interaction in human MCF7 cells assessed as p53 accumulation at 50 nM after 24 to 72 hrs by Western blot analysis; type: cell-based
# U-937 = test: Cytotoxicity against human U937 cells after 24 hrs by MTT assay; type: functional, cell-based; conditions: U-937, 24 h
# [12] = Cytotoxicity against human HGF cells after 24 hrs by MTT assay; type: cell-based
# MCF7 [13] = test: Induction of apoptosis in human MCF7 cells assessed as increase in p53 expression level at 50 nM by Western blotting analysis; type: functional, cell-based; conditions: TDE = time-dependent effect
# MCF7 [14] = test: Cell cycle arrest in human MCF7 cells assessed as accumulation at G1 phase at 50 to 5000 nM after 24 hrs by propidium iodide staining-based FACS analysis relative to control; type: functional
# MCF7 [15] = test: Cell cycle arrest in human MCF7 cells assessed as accumulation at G2M phase at 50 nM after 24 to 72 hrs by propidium iodide staining-based FACS analysis relative to control; type: functional
# MCF7 [16] = test: Induction of apoptosis in human MCF7 cells assessed as reduction in Bcl-xL expression level at 50 nM after 24 to 72 hrs by Western blotting analysis; type: functional, cell-based
# [17] = Cytotoxicity against human C643 cells after 24 hrs by MTT assay; conditions: C643, 24 h
# [18] = target: T1, Tumour suppressor p53/oncoprotein Mdm2 (Homo sapiens); test: Inhibition of MDM2-p53 interaction in human MCF7 cells assessed as reduction in p53 level bound to MDM2 after 24 to 48 hrs by immunoprecipitation assay; type: cell-based
# [19] = Cytotoxicity against human Calu cells after 24 hrs by MTT assay; type: functional, cell-based
# MCF7 [20] = test: Induction of apoptosis in human MCF7 cells assessed as cytochrome C release at 50 nM after 72 hrs by Western blotting analysis; type: functional, cell-based
# HepG2 = test: cells; conditions: Homo sapiens, HepG2, 24 h
# Description: Cytotoxicity against human HepG2 cells after 24 hrs by MTT assay
# MCF7 [21] = test: Induction of apoptosis in human MCF7 cells assessed as early apoptotic cells at 50 nM after 48 hrs by annexin V-FITC/propidium iodide staining based FACS flow cytometry (reference value: 4 %); type: functional
# MCF7 [22] = test: Cell cycle arrest in human MCF7 cells assessed as accumulation at G2M phase at 50 to 5000 nM after 24 hrs by propidium iodide staining-based FACS analysis relative to control; type: functional
# MCF7 [23] = test: Induction of apoptosis in human MCF7 cells assessed as early apoptotic cells at 50 nM after 72 hrs by annexin V-FITC/propidium iodide staining based FACS flow cytometry (reference value: 4 %); type: functional
# MCF7 [24] = test: Cell cycle arrest in human MCF7 cells assessed as accumulation at S phase at 50 to 5000 nM after 24 hrs by propidium iodide staining-based FACS analysis relative to control; type: functional
# [25] = Ratio of Doxorubicin IC50 to compound IC50 against human Calu cells; type: functional
# T1 sequence (P04637 whole entry, looked up): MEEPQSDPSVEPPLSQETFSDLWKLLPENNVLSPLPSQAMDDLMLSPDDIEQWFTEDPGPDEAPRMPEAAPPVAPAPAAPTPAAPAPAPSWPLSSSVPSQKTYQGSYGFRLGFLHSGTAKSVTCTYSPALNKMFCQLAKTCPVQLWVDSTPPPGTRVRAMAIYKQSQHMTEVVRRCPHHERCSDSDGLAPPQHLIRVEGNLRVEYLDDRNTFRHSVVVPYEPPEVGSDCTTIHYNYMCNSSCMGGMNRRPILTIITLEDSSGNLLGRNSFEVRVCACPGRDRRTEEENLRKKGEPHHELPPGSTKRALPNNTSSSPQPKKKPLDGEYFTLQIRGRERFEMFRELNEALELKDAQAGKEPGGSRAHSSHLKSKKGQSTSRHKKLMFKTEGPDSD
# T1 sequence (Q00987 whole entry, looked up): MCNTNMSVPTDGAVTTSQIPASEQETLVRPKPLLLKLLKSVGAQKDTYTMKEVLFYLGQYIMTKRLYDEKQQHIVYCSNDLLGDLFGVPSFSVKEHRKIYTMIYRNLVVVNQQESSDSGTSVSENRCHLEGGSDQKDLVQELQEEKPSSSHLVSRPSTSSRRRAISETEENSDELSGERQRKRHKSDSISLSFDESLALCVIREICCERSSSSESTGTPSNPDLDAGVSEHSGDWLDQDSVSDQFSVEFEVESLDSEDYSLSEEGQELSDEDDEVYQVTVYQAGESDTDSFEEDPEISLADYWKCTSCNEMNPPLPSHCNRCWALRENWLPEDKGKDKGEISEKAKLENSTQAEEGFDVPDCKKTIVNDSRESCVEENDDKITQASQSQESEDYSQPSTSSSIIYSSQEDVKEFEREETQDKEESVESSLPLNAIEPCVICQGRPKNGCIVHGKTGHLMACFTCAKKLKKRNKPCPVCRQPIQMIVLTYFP
smiles,measurement,setting,value
CCOC(=O)[C@@H]1CS[C@@]2(C(=O)Nc3ccccc32)N1C(=O)c1ccc(Cl)cc1,IC50,HT-29,3.69 µM
same,IC50,MCF7 [1],2.15 µM
CCOC(=O)[C@@H]1CS[C@@]2(C(=O)Nc3ccc(C)cc32)N1C(=O)c1ccc(Cl)cc1,IC50,HT-29,1.09 µM
same,IC50,MCF7 [1],2.12 µM
CCOC(=O)[C@@H]1CS[C@@]2(C(=O)Nc3ccc(Br)cc32)N1C(=O)c1ccc(Cl)cc1,IC50,HT-29,0.11 µM
same,IC50,MCF7 [1],0.9 µM
CCOC(=O)[C@@H]1CS[C@]2(C(=O)Nc3ccc(Br)cc32)N1C(=O)c1ccc(Cl)cc1,IC50,HT-29,2 µM
same,IC50,MCF7 [1],3 µM
CCOC(=O)[C@@H]1CS[C@@]2(C(=O)N(C)c3ccccc32)N1C(=O)c1ccc(Cl)cc1,IC50,HT-29,0.18 µM
same,IC50,MCF7 [1],4.52 µM
CCOC(=O)[C@@H]1CS[C@@]2(C(=O)N(C)c3ccc(C)cc32)N1C(=O)c1ccc(Cl)cc1,IC50,HT-29,0.12 µM
same,IC50,MCF7 [1],1.23 µM
CCOC(=O)[C@@H]1CS[C@@]2(C(=O)N(C)c3ccc(Br)cc32)N1C(=O)c1ccc(Cl)cc1,IC50,HT-29,0.08 µM
same,IC50,MCF7 [1],0.52 µM
CCOC(=O)[C@@H]1CS[C@@]2(C(=O)N(C)c3ccc(Br)cc32)N1C(=O)Cc1ccc(Cl)cc1,IC50,HT-29,0.36 µM
same,IC50,MCF7 [1],0.27 µM
CCOC(=O)[C@@H]1CS[C@@]2(C(=O)N(C)c3ccc(Br)cc32)N1C(=O)c1ccccc1,IC50,HT-29,0.21 µM
same,IC50,MCF7 [1],0.31 µM
CCOC(=O)[C@@H]1CS[C@@]2(C(=O)N(C)c3ccc(Br)cc32)N1C(=O)c1ccc(C)cc1,IC50,HT-29,0.09 µM
same,IC50,MCF7 [1],0.06 µM
CCOC(=O)[C@@H]1CS[C@]2(N1)C(=O)N(C(=O)c1ccc(Cl)cc1)c1ccccc12,IC50,HT-29,1.03 µM
same,IC50,MCF7 [1],1.01 µM
CCOC(=O)[C@@H]1CS[C@]2(N1)C(=O)N(C(=O)c1ccc(Cl)cc1)c1ccc(C)cc12,IC50,HT-29,0.23 µM
same,IC50,MCF7 [1],3.46 µM
CCOC(=O)[C@@H]1CS[C@]2(N1)C(=O)N(C(=O)c1ccc(Cl)cc1)c1ccc(Br)cc12,IC50,HT-29,0.02 µM
same,IC50,MCF7 [1],0.15 µM
CCOC(=O)[C@@H]1CS[C@]2(N1)C(=O)N(C(=O)C1CCCCC1)c1ccc(Br)cc12,IC50,HT-29,1.4 µM
CCOC(=O)C1=N[C@@]2(SC1)C(=O)N(C(=O)C1CCCCC1)c1ccc(Br)cc12,IC50,HT-29,0.85 µM
CCOC(=O)[C@@H]1CS[C@@]2(C(=O)Nc3ccc(C)cc32)N1C(=O)Cc1ccc(Cl)cc1,IC50,HT-29,0.78 µM
same,IC50,MCF7 [1],4.81 µM
CCOC(=O)[C@@H]1CS[C@@]2(C(=O)Nc3ccc(Br)cc32)N1C(=O)Cc1ccc(Cl)cc1,IC50,HT-29,0.66 µM
same,IC50,MCF7 [1],2.9 µM
O=C1C2CSC3(C(=O)Nc4ccccc43)N2C(=O)N1Cc1ccc(Cl)cc1 (configuration not stated),IC50,HT-29,1.6 µM
same,IC50,MCF7 [1],1.21 µM
CCOC(=O)[C@@H]1CS[C@@]2(C(=O)Nc3ccccc32)N1C(=O)Cc1ccc(Cl)cc1,IC50,HT-29,1 µM
same,IC50,MCF7 [1],> 5 µM
CCOC(=O)[C@@H]1CS[C@@]2(C(=O)N(C)c3ccc(Br)cc32)N1C(=O)C1CCCCC1 (mixture of isomers),Activity,MCF7 [2],inactive
same,Activity,MCF7 [3],tde
same,Activity,MCF7 [4],tde
same,IC50,PC-3,0.41 µM
same,Activity,MCF7 [5],Active
same,inhibition,[6],Active
same,inhibition,[7],inactive
same,Activity,MCF7 [8],Active
same,Activity,MCF7 [9],inactive
same,Activity,MCF7 [10],tde
same,inhibition,[11],Active
same,IC50,U-937,0.07 µM
same,IC50,[12],1.6 µM
same,IC50,HT-29,0.07 µM
same,Activity,MCF7 [13],tde
same,Activity,MCF7 [14],inactive
same,Activity,MCF7 [15],inactive
same,Activity,MCF7 [16],Active
same,IC50,[17],0.55 µM
same,inhibition,[18],Active
same,IC50,[19],0.1 µM
same,Activity,MCF7 [20],Active
same,IC50,MCF7 [1],0.04 µM
same,IC50,HepG2,0.14 µM
same,Activity,MCF7 [21],10%
same,Activity,MCF7 [22],inactive
same,Activity,MCF7 [23],12%
same,Activity,MCF7 [24],inactive
same,Ratio IC50,[25],18
CCOC(=O)[C@@H]1CS[C@@]2(C(=O)N(C)c3ccc(C)cc32)N1C(=O)C1CCCCC1 (mixture of isomers),IC50,HT-29,1.1 µM
same,IC50,MCF7 [1],1.2 µM
CCOC(=O)[C@@H]1CS[C@@]2(C(=O)N(C)c3ccccc32)N1C(=O)C1CCCCC1 (mixture of isomers),IC50,HT-29,1.9 µM
same,IC50,MCF7 [1],2.3 µM
CCOC(=O)[C@@H]1CS[C@@]2(C(=O)Nc3ccc(Br)cc32)N1C(=O)C1CCCCC1 (mixture of isomers),IC50,HT-29,0.56 µM
same,IC50,MCF7 [1],0.22 µM
CN1C(=O)[C@@]2(SC[C@@H](C(=O)O)N2C(=O)C2CCCCC2)c2cc(Br)ccc21 (mixture of isomers),IC50,HT-29,1.9 µM
same,IC50,MCF7 [1],2.01 µM
COc1ccc(C2=N[C@@H](c3ccc(Cl)cc3)[C@@H](c3ccc(Cl)cc3)N2C(=O)N2CCNC(=O)C2)c(OC(C)C)c1 (relative stereo) [NUTLIN-3],IC50,PC-3,30.3 µM
same,IC50,U-937,15.6 µM
same,IC50,[12],1.4 µM
same,IC50,[17],23 µM
same,IC50,[19],27.2 µM
same,IC50,MCF7 [1],2.9 µM
same,IC50,HepG2,10.2 µM
"CCOC(=O)C1=N[C@@]2(SC1)C(=O)N(C(=O)c1ccc(Cl)cc1)c1ccc(Br)cc12 (single isomer, unassigned)",IC50,HT-29,0.2 µM
same,IC50,MCF7 [1],0.86 µM
COc1cccc2c1C(=O)c1c(O)c3c(c(O)c1C2=O)C[C@@](O)(C(=O)CO)C[C@@H]3O[C@H]1C[C@H](N)[C@H](O)[C@H](C)O1 [DOXORUBICIN],IC50,PC-3,0.75 µM
same,IC50,U-937,0.12 µM
same,IC50,[12],0.5 µM
same,IC50,[19],1.81 µM
same,IC50,HepG2,0.08 µM
